We go through 23 compounds from patent publication US8415351B2 (priority 2007, dated 2013).

Structures are written as SMILES.

The test system of test [1] is genotype 1a-H77 subgenomic replicon cell line. Kind of test: microbe, parasite or virus in culture. It is filed as cell-based, HCV. The conditions noted are these: Hepatitis C virus, read-out: EC50 1a.
In test [2] the target is T1, HCV polymerase 1A (Δ21 NS5B, H77) (Hepatitis C virus genotype 1a, UniProt P27958).
T1 construct: 20 to 50 nM Δ21 NS5B
T1 sequence (P27958 2421-2990, stated change not applied): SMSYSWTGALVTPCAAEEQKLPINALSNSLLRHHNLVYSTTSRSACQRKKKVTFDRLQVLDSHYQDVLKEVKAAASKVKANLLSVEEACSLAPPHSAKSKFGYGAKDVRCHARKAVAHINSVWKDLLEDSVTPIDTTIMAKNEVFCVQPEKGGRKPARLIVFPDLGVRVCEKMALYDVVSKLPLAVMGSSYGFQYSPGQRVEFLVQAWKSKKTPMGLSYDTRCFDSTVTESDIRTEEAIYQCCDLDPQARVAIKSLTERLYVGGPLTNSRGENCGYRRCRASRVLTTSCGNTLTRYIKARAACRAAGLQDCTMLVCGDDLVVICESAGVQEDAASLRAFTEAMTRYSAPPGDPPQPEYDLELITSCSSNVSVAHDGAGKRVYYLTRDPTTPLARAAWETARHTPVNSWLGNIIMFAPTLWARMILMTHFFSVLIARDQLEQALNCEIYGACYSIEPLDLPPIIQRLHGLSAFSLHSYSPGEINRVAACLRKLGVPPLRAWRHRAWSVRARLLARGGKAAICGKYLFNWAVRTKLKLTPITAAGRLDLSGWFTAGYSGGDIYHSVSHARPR
Put plainly: biochemical. As to conditions: IC50 1a. An outline of the steps:
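Radiometric assay with Δ21 NS5B (H77): 20 μM CTP, 20 μM ATP, 1 μM ^3H-UTP, 5 nM template RNA, 2–4 h at room temperature. RNA precipitated with spermine, filter-captured and counted. IC50 from non-linear fit of retained cpm vs inhibitor concentration (tight-binding equation).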

For test [3], the target named is T2, HCV polymerase 1B (Δ21 NS5B, BK) (Hepatitis C virus genotype 1b, UniProt P26663).
T2 construct: 20 to 50 nM Δ21 NS5B
T2 sequence (P26663 2420-2989, stated change not applied): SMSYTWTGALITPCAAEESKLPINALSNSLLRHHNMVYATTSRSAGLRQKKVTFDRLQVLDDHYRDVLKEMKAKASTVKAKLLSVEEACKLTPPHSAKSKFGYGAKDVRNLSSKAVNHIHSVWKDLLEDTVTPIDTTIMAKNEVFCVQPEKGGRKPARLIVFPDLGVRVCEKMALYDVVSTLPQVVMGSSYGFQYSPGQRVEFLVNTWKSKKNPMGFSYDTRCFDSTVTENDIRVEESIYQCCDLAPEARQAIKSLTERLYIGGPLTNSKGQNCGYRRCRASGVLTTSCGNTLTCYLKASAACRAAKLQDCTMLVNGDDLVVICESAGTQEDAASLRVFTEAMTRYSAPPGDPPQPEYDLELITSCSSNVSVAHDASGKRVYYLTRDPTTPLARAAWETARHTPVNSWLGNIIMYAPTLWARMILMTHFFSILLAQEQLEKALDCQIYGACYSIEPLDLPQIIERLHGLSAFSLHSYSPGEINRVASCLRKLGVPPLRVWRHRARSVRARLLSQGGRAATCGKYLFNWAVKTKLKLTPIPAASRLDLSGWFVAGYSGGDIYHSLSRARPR
Kind of test: biochemical. An outline of the steps: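 Δ21 NS5B (genotype 1b, BK […]) preincubated 15 min RT with inhibitor, 2 mM MnCl2, pH 7.4, 60–125 μM GTP; started with 20 μM CTP/ATP, 1 μM 3H-UTP, 5 nM template RNA, run 2–4 h RT. Spermine-precipitated RNA filter-captured, scintillation counted; IC50 from tight-binding (Morrison) fit.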

In test [4] the test system is genotype 1b-Con1 subgenomic replicon cell line. Put plainly: microbe, parasite or virus in culture. The format is cell-based, HCV. The conditions noted are these: Hepatitis C virus, read-out: EC50 1b.

Take `COc1c(-c2ccc3c(c2)CC[C@@H]3CNS(C)(=O)=O)cc(-n2ccc(=O)[nH]c2=O)cc1C(C)(C)C` (single isomer, unassigned) [IB-L0-2.9]: the EC50 in test [1] and in test [4] was < 10 nM in each case. For the same compound, the IC50 in test [2] and in test [3] was < 10 nM throughout.

On to `COc1c(-c2ccc3c(c2)CC[C@H]3CNS(C)(=O)=O)cc(-n2ccc(=O)[nH]c2=O)cc1C(C)(C)C` (single isomer, unassigned) [IB-L0-2.15], for which the EC50 (commonly the concentration that produces a half-maximal response) is 100 to 1000 nM in test [1] and 10 to 100 nM in test [4]. Further, the IC50 (in general, the concentration at which inhibition is half-maximal) is < 10 nM in test [2] and 10 to 100 nM in test [3].

Turning to `COc1c(-c2ccc3c(c2)CC[C@@H]3C(C)(C)NS(C)(=O)=O)cc(-n2ccc(=O)[nH]c2=O)cc1C(C)(C)C` (single isomer, unassigned) [IB-L0-2.22], the EC50 fell in the range of 100 to 1000 nM in test [1] and 10 to 100 nM in test [4]. Moreover, the IC50 in test [2] and in test [3] was 10 to 100 nM in each case.

`COc1c(-c2ccc3c(c2)CC[C@H]3C(C)(C)NS(C)(=O)=O)cc(-n2ccc(=O)[nH]c2=O)cc1C(C)(C)C` (single isomer, unassigned) [IB-L0-2.37]: the figures for the EC50 in test [1] and in test [4] were > 1000 nM and 100 to 1000 nM, respectively. For the same compound, the IC50 in test [2] and in test [3] was 100 to 1000 nM each time.

For the compound `COc1c(-c2ccc(/C=N/NS(C)(=O)=O)cc2)cc(N2CCC(=O)NC2=O)cc1C(C)(C)C` [IA-L0-1.1, (E)-N′-((3′-tert-butyl-5′-(2,4-dioxotetrahydropyrimidin-1(2H)-yl)-2′-methoxybiphenyl-4-yl)methylene)methanesulfonohydrazide], the values for the EC50 in test [1] and in test [4] were 100 to 1000 nM and < 10 nM, respectively. The values for the IC50 in test [2] and in test [3] were < 10 nM and 10 to 100 nM, respectively.

Take `COc1c(-c2ccc(/C(C)=N/NS(C)(=O)=O)cc2)cc(N2CCC(=O)NC2=O)cc1C(C)(C)C` [IA-L0-1.2, (E)-N′-(1-(3′-tert-butyl-5′-(2,4-dioxotetrahydropyrimidin-1(2H)-yl)-2′-methoxybiphenyl-4-yl)ethylidene)methanesulfonohydrazide]: the values for the EC50 in test [1] and in test [4] were 100 to 1000 nM and 10 to 100 nM, respectively. In addition, the IC50 in test [2] and in test [3] was 10 to 100 nM each time.

In the case of `COc1c(-c2cc(F)c(/C=N/NS(C)(=O)=O)c(F)c2)cc(N2CCC(=O)NC2=O)cc1C(C)(C)C` [IA-L0-1.3, (E)-N′-((3′-tert-butyl-5′-(2,4-dioxotetrahydropyrimidin-1(2H)-yl)-3,5-difluoro-2′-methoxybiphenyl-4-yl)methylene)methanesulfonohydrazide], the EC50 in test [1] and in test [4] was 100 to 1000 nM in each case. In addition, the IC50 in test [2] and in test [3] was 100 to 1000 nM each time.

`COc1c(-c2ccc(/C=N/NS(C)(=O)=O)c(F)c2)cc(N2CCC(=O)NC2=O)cc1C(C)(C)C` [IA-L0-1.4, (E)-N′-((3′-tert-butyl-5′-(2,4-dioxotetrahydropyrimidin-1(2H)-yl)-3-fluoro-2′-methoxybiphenyl-4-yl)methylene)methanesulfonohydrazide]: the results for the EC50 in test [1] and in test [4] were 100 to 1000 nM and 10 to 100 nM, respectively. Moreover, the IC50 in test [2] and in test [3] was 10 to 100 nM throughout.

Regarding `COc1ccc(-c2cc(N3CCC(=O)NC3=O)cc(C(C)(C)C)c2OC)cc1/C=N/NS(C)(=O)=O` [IA-L0-1.5, (E)-N′-((3′-tert-butyl-5′-(2,4-dioxotetrahydropyrimidin-1(2H)-yl)-2′,4-dimethoxy-biphenyl-3-yl)methylene)methanesulfonohydrazide], the EC50 in test [1] and in test [4] was > 1000 nM throughout. Further, the IC50 in test [2] and in test [3] was 100 to 1000 nM each time.

Regarding `COc1c(-c2ccc(/C=N/NS(C)(=O)=O)c(F)c2F)cc(N2CCC(=O)NC2=O)cc1C(C)(C)C` [IA-L0-1.6, (E)-N′-((3′-tert-butyl-5′-(2,4-dioxotetrahydropyrimidin-1(2H)-yl)-2,3-difluoro-2′-methoxybiphenyl-4-yl)methylene)methanesulfonohydrazide], the concentration giving a half-maximal response (EC50) in test [1] fell in the range of 100 to 1000 nM; in test [4] it was 10 to 100 nM. Moreover, the IC50 in test [2] and in test [3] was 10 to 100 nM each time.

For the compound `COc1c(C(=O)Nc2ccc(NS(C)(=O)=O)c([N+](=O)[O-])c2)cc(N2CCC(=O)NC2=O)cc1C(C)(C)C` [IA-L3-1.87, 3-tert-butyl-5-(2,4-dioxotetrahydropyrimidin-1(2H)-yl)-2-methoxy-N-(4-(methylsulfonamido)-3-nitrophenyl)benzamide], the IC50 is > 1000 nM in test [2] and 100 to 1000 nM in test [3]. Besides, in test [4], the EC50 was > 1000 nM.

Take `COc1c(C(=O)Nc2ccc(NS(C)(=O)=O)nc2)cc(N2CCC(=O)NC2=O)cc1C(C)(C)C` [IA-L3-1.99, 3-tert-butyl-5-(2,4-dioxotetrahydropyrimidin-1(2H)-yl)-2-methoxy-N-(6-(methylsulfonamido)pyridin-3-yl)benzamide]: the IC50 in test [2] was in the range of 10 to 100 nM; in test [3] it was 100 to 1000 nM. The EC50 in test [4] lay within 100 to 1000 nM.

`COc1c(C(=O)Nc2ccc(N)nc2)cc(N2CCC(=O)NC2=O)cc1C(C)(C)C` [IA-L3-1.100, N-(6-aminopyridin-3-yl)-3-tert-butyl-5-(2,4-dioxotetrahydropyrimidin-1(2H)-yl)-2-methoxy benzamide]: the IC50 is > 1000 nM in test [2] and 100 to 1000 nM in test [3]. The EC50 in test [4] was > 1000 nM.

`COc1c(C(=O)Nc2ccc(NS(C)(=O)=O)cn2)cc(N2CCC(=O)NC2=O)cc1C(C)(C)C` [IA-L3-1.102, 3-tert-butyl-5-(2,4-dioxotetrahydropyrimidin-1(2H)-yl)-2-methoxy-N-(5-(methylsulfonamido)pyridin-2-yl)benzamide]: the IC50 in test [2] and in test [3] was 100 to 1000 nM in each case. Further, the concentration giving a half-maximal response (EC50) in test [4] was in the range of 100 to 1000 nM.

As to `COc1c(C(=O)Nc2ccc(NS(C)(=O)=O)cc2)cc(N2CCC(=O)NC2=O)cc1C(C)C` [IA-L3-1.111, 5-(2,4-dioxotetrahydropyrimidin-1(2H)-yl)-3-isopropyl-2-methoxy-N-(4-(methylsulfonamido)phenyl)benzamide], the values for the IC50 in test [2] and in test [3] were 10 to 100 nM and 100 to 1000 nM, respectively. In test [4], the EC50 was in the range of 100 to 1000 nM.

Turning to `COc1c(C(=O)Nc2ccc(NS(=O)(=O)CCO)cc2)cc(N2CCC(=O)NC2=O)cc1C(C)(C)C` [IA-L3-1.122, 3-tert-butyl-5-(2,4-dioxotetrahydropyrimidin-1(2H)-yl)-N-(4-(2-hydroxyethylsulfonamido)phenyl)-2-methoxybenzamide], the IC50 in test [2] and in test [3] was 10 to 100 nM in each case. Further, in test [4], the EC50 lay within 10 to 100 nM.

Take `COc1c(NC(=O)c2ccc(NS(C)(=O)=O)cc2)cc(N2CCC(=O)NC2=O)cc1C(C)(C)C` [IA-L4-1.9, N-(3-tert-butyl-5-(2,4-dioxotetrahydropyrimidin-1(2H)-yl)-2-methoxyphenyl)-4-(methylsulfonamido)benzamide]: the IC50 in test [2] and in test [3] was 10 to 100 nM throughout. For the same compound, the EC50 in test [4] lay within 10 to 100 nM.

With `COc1c(C#Cc2ccc(NS(C)(=O)=O)cc2Cl)cc(-n2ccc(=O)[nH]c2=O)cc1C(C)(C)C` [IB-L2-1.2, N-(4-((3-tert-butyl-5-(2,4-dioxo-3,4-dihydropyrimidin-1(2H)-yl)-2-methoxyphenyl)ethynyl)-3-chlorophenyl)methanesulfonamide], the IC50 was < 10 nM in test [2] and 10 to 100 nM in test [3]. Moreover, in test [4], the EC50 is < 10 nM.

As to `COc1c(C#Cc2cc(F)c(NS(C)(=O)=O)c(F)c2)cc(-n2ccc(=O)[nH]c2=O)cc1C(C)(C)C` [IB-L2-1.4, N-(4-((3-tert-butyl-5-(2,4-dioxo-3,4-dihydropyrimidin-1(2H)-yl)-2-methoxyphenyl)ethynyl)-2,6-difluorophenyl)methanesulfonamide], the IC50 in test [2] and in test [3] was 10 to 100 nM in each case. Further, in test [4], the EC50 was 100 to 1000 nM.

Consider `COC(=O)c1cc(NS(C)(=O)=O)ccc1C#Cc1cc(-n2ccc(=O)[nH]c2=O)cc(C(C)(C)C)c1OC` [IB-L2-1.7, methyl 2-((3-tert-butyl-5-(2,4-dioxo-3,4-dihydropyrimidin-1(2H)-yl)-2-methoxyphenyl)-ethynyl)-5-(methylsulfonamido)benzoate], for which the figures for the concentration for half-maximal inhibition (IC50) in test [2] and in test [3] were < 10 nM and 10 to 100 nM, respectively. For the same compound, the EC50 in test [4] is < 10 nM.

On to `COc1c(C#Cc2cnc(NS(C)(=O)=O)cn2)cc(-n2ccc(=O)[nH]c2=O)cc1C(C)(C)C` [IB-L2-1.9, N-(5-((3-tert-butyl-5-(2,4-dioxo-3,4-dihydropyrimidin-1(2H)-yl)-2-methoxyphenyl)ethynyl)-pyrazin-2-yl)methanesulfonamide], for which the EC50 in test [1] was > 1000 nM. Also, the IC50 lay in the range of 100 to 1000 nM in test [2] and 10 to 100 nM in test [3].

In the case of `COc1c(C#Cc2ccc(NS(C)(=O)=O)cc2C(C)(C)C)cc(-n2ccc(=O)[nH]c2=O)cc1C(C)(C)C` [IB-L2-1.10, N-(3-tert-butyl-4-((3-tert-butyl-5-(2,4-dioxo-3,4-dihydropyrimidin-1(2H)-yl)-2-methoxy-phenyl)ethynyl)phenyl)methanesulfonamide], the IC50 in test [2] is < 10 nM; in test [3], 10 to 100 nM. For the same compound, in test [4], the EC50 was 10 to 100 nM.

For `COc1c(C(=O)Nc2ccc(NS(C)(=O)=O)cc2)cc(-n2c(C)cc(=O)[nH]c2=O)cc1C(C)(C)C` [IB-L3-1.3, 3-tert-butyl-2-methoxy-5-(6-methyl-2,4-dioxo-3,4-dihydropyrimidin-1(2H)-yl)-N-(4-(methylsulfonamido)phenyl)benzamide], the figures for the IC50 in test [2] and in test [3] were 100 to 1000 nM and > 1000 nM, respectively. The concentration for a half-maximal effect (EC50) in test [4] was 100 to 1000 nM.
